# Measured values as given in PubChem BioAssay AID1645865 (Buhrlage Lab, Dana-Farber Cancer Institute and Novartis …, 2021).
# Active and inactive are the calls of the source.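 How the source made its calls: active means maximal inhibition of the USP30 enzyme reaching 30% or more across the dose series; inactive means the rest.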
# Biological target: Ubiquitin carboxyl-terminal hydrolase 30 (Homo sapiens) (UniProt Q70CQ3)
# Test: inhibitors of ubiquitin-specific protease 30 deubiquitylating enzyme, concentration dependence, in vitro biochemical, validation of primary hits (AID 1645865)
# Details: purified USP30, Ub-rhodamine cleavage, fluorescence, 2 h
# Ubiquitin carboxyl-terminal hydrolase 30 (Homo sapiens), sequence (Q70CQ3 whole entry, looked up): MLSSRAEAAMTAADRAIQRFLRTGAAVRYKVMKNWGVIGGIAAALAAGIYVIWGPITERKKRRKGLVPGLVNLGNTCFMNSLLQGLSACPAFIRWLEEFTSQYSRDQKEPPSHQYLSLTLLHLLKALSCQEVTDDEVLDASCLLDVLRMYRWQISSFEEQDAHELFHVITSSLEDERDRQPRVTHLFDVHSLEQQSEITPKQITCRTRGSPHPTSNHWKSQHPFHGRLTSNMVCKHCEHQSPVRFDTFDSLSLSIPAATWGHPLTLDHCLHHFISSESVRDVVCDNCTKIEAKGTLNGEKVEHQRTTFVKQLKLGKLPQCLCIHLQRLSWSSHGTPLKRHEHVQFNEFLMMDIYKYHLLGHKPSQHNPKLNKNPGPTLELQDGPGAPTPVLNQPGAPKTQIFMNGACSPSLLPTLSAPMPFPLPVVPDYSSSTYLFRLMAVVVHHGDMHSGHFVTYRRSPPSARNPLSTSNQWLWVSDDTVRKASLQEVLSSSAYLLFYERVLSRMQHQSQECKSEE
row,IC50,SMILES
1,21.8 µM,COc1cccc(N2CCN(C(=O)Nc3ccc4c(c3)NC(=O)CO4)CC2)c1
2,> 50 µM (inactive),CN1CC2CN(C(=O)Nc3cccnc3)CCN2Cc2ccccc21 (centres undefined)
3,26.5 µM,O=C(CSc1nnc(CNC(=O)c2ccccc2F)o1)Nc1ccc(OC(F)(F)F)cc1
4,3.39 µM,CCOc1ccc(NC(=O)Cn2c(=O)n(CCC(=O)NCc3ccccc3OC)c(=O)c3ccccc32)cc1
5,35.4 µM,COc1cccc(-c2cc(=O)[nH]c(Nc3nc(C)c4ccccc4n3)n2)c1
6,> 50 µM (inactive),Cc1sc(NC(=O)CNc2ccccc2)nc1-c1ccc2c(c1)CCN2C(=O)C(C)C
7,0.981 µM,Oc1sc(C=Nc2cc(Cl)ccc2Cl)c2ccccc12
8,33.9 µM,O=C(Nc1cccc2ccccc12)N1CCC(c2nc3c(nnn3Cc3ccc(F)cc3)c(=O)[nH]2)CC1
9,37.7 µM,O=C(COC(=O)c1ccc2[nH]c3c(c2c1)CCCC3)Nc1ccc2c(c1)OCO2
10,> 50 µM (inactive),O=C(Nc1ccc2c(c1)OCCO2)Nc1nnc(CC(=O)N2CCCCC2)s1
11,> 50 µM (inactive),CC(C)(C)N=C1Nc2ncccc2NC12CCCN(C(=O)c1ccccc1)C2 (centres undefined)
12,3.47 µM,COc1ccc(NC(=O)c2[nH]nc3c2COc2ccccc2-3)c(OC)c1
13,1.92 µM,CN(C)c1ccc(C2CC(c3c(O)n(C)c(=O)[nH]c3=O)=Nc3ccccc3S2)cc1 (centres undefined)
14,29.4 µM,NS(=O)(=O)c1ccc(NS(=O)(=O)c2ccc(NC(=O)Nc3ccc(Cl)cc3)cc2)cc1
15,> 50 µM (inactive),O=C(COc1nsnc1N1CCOCC1)Nc1ccccc1F
16,> 50 µM (inactive),O=C(Nc1nnc2n1CCCS2)c1cccc(Cl)c1
17,> 50 µM (inactive),CC(C)N1CC2CN(Cc3ccc(Cl)cc3)CCN2Cc2ccccc21 (centres undefined)
18,> 50 µM (inactive),O=C1c2ccccc2NC2(C(=O)Nc3ccc(Br)cc32)N1c1ccccc1 (centres undefined)
19,37.3 µM,Oc1cc(OCc2cccc(C(F)(F)F)c2)ccc1-c1ccn[nH]1
20,17.9 µM,COc1ccc(C)cc1NC(=O)CSc1nc(C)nc2c1oc1ccccc12
21,> 50 µM (inactive),O=C(O)C1CCN(Cc2c(-c3ccco3)nc3ccc(Cl)cn23)CC1
22,> 50 µM (inactive),CC(C)(C)OC(=O)N1CCN(C(=O)Cn2c(=O)nc(-c3ccccc3)c3ccccc32)CC1
23,> 50 µM (inactive),O=C(CN(Cc1ccc(Cl)cc1)S(=O)(=O)c1ccc(Cl)cc1)N1CCOCC1
24,> 50 µM (inactive),CC1OC(CC(=O)O)CC23OC12C(=O)c1c(O)cccc1C3=O (centres undefined)
25,44.2 µM,O=C(NCc1ccc2c(c1)OCO2)c1nnc(Cc2ccc(F)cc2)o1

row,IC50,SMILES
1,> 50 µM (inactive),O=C(Cn1cnc(-c2noc(-c3ccncc3)n2)c1)N1CCN(c2ccccc2F)CC1
2,17.9 µM,Cc1ccccc1NC(=O)Cn1c(N2CCOCC2)nc2cc(C)n(C)c2c1=O
3,27.4 µM,CCOc1ccc(NC(=O)Cn2cnc(S(=O)(=O)N3CCc4ccccc43)c2)cc1
4,1.22 µM,Cc1nc(SCC(=O)Nc2cc(Cl)ccc2C)c2oc3ccccc3c2n1
5,37.5 µM,Cn1c(=O)[nH]c(=O)c2c1nc1n(CCc3ccccc3)c(-c3ccccc3)cn21
6,21 µM,O=c1c(S(=O)(=O)c2cc(F)cc(F)c2)c[nH]c2cc(Cl)ccc12
7,22.9 µM,O=C(CCn1c(=O)c2sccc2n(CC(=O)OCc2ccccc2)c1=O)NCc1ccc2c(c1)OCO2
8,> 50 µM (inactive),CC1CCc2c(sc3ncnc(NC4CCN(CC(N)=O)CC4)c23)C1 (centres undefined)
9,45.8 µM,COc1ccc(-c2ocnc2C(=O)Nc2cccc(Cl)c2C)cc1OC
10,35.5 µM,O=C(Nc1ccccc1Cl)N(Cc1cc2cc3c(cc2[nH]c1=O)OCCO3)C1CCCCC1
11,36.2 µM,CC1=CC(=O)C(C2=C(O)C(=O)C(C)=CC2=O)=C(O)C1=O
12,> 50 µM (inactive),CC(C(=O)NCc1ccc(F)cc1)n1cccc1C(=O)c1ccccc1 (centres undefined)
13,> 50 µM (inactive),CCOc1ccc(NC(=O)c2nc3c(=O)[nH]c4cc(C)ccc4n3n2)cc1
14,> 50 µM (inactive),O=C1C[C@@H]2O[C@H](CNC(=O)[C@@H]3CN(CCN3C(=O)C3CCOCC3)C(=O)[C@@H]3C[C@@H](CN3Cc3ccc(F)c(F)c3)N1)[C@@H](O)[C@H]2O
15,25.8 µM,CCOc1ccc(C(=O)Cn2c(=O)n(CC3CCCO3)c(=O)c3cc(OC)c(OC)cc32)cc1Cl (centres undefined)
16,40.3 µM,Cc1nc2ccccc2nc1SCC(=O)Nc1ccc2c(c1)OCO2
17,42.7 µM,COc1ccc(NC(=O)C2CCCN(S(=O)(=O)N3CCCCCC3)C2)cc1 (centres undefined)
18,> 50 µM (inactive),O=C(Nc1ccc(N2CCOCC2)cc1)c1ccc(-c2ccc(N3CCCC3)nn2)cc1
19,23.2 µM,Cc1cc(C)c2cc3c(nc2c1)OC(=O)N(Cc1ccco1)C3
20,> 50 µM (inactive),CC(C)CC1NC(=O)C2CCCN2C1=O (centres undefined)
21,31.1 µM,Cc1c(C)c2ccc(OCC(=O)NCc3ccncc3)c(C)c2oc1=O
22,> 50 µM (inactive),CC1=CN2C(=N)/C(=C/c3cn(Cc4ccc(Cl)cc4)c4ccccc34)C(=O)N=C2S1
23,> 50 µM (inactive),O=[N+]([O-])c1ccc2c(c1)nc1n2CCN(Cc2ccco2)C1
24,12.3 µM,CCCc1cc(=O)oc2cc(OCC(=O)NCc3ccc(OC)cc3)ccc12
25,> 50 µM (inactive),N#Cc1ccccc1Cn1c(=O)n(Cc2ccco2)c(=O)c2ccccc21

row,IC50,SMILES
1,> 50 µM (inactive),COc1ccc(NCc2nc3ccccc3n2Cc2ccccc2)cc1
2,> 50 µM (inactive),COc1cc2c(=O)n(CCC(=O)NCc3ccco3)c(=O)n(CC(=O)Nc3c(C)cccc3C)c2cc1OC
3,2.87 µM,COc1ccc(-c2nc3n(n2)C(CC(=O)Nc2cccc4ccccc24)C(=O)N3)cc1 (centres undefined)
4,28.3 µM,O=C(COc1cc([N+](=O)[O-])cc2cccnc12)NCCC1=CCCCC1
5,> 50 µM (inactive),COc1cccc2c1OCC(NS(=O)(=O)c1cc(C)ccc1C)C2 (centres undefined)
6,> 50 µM (inactive),CC(C)(C)C(=O)NC(c1ccccc1)c1nnc(N2CCOCC2)o1 (centres undefined)
7,28 µM,CC(OC(=O)CNC(=O)c1ccc(Br)cc1)C(=O)Nc1ccc2c(c1)OCCO2 (centres undefined)
8,> 50 µM (inactive),Cc1noc(C)c1CN1CC[C@H]2O[C@H](C(=O)NCc3ccco3)CC[C@H]21
9,> 50 µM (inactive),CN1CCN(C(=O)c2ccn(-c3ccc4ccc(-c5cnn(C)c5)cn34)n2)CC1
10,> 50 µM (inactive),COc1ccc(NC(=O)CSc2nnc(Cc3cccc4ccccc34)n2C)cc1
11,35.9 µM,O=C(Cn1cnc2c(oc3ccccc32)c1=O)NCc1ccccc1Cl
12,22.6 µM,O=C(Nc1ccc(F)cc1F)c1csc(-c2ccccc2)n1
13,1.91 µM,O=C(COc1ccc(Cl)cc1)N1CCc2cc3ccccc3nc21
14,> 50 µM (inactive),Cc1oc(-c2ccc(C(=O)NCC3COCCO3)cc2)nc1CN1CCc2ccccc21 (centres undefined)
15,37.1 µM,COc1ccc(S(=O)(=O)N2CCC3(CC2)OC(=O)Nc2ccccc23)cc1
16,8.13 µM,O=C(CCCCn1c(=O)c2ccccc2n(Cc2ccccc2F)c1=O)NCCc1ccccc1
17,1.24 µM,CC(C)=CCC/C(C)=C/Cc1c(O)cc2c(c1O)C(=O)OC2
18,> 50 µM (inactive),O=C(Nc1ccc(NS(=O)(=O)c2ccc3c4c(cccc24)CC3)cc1)c1ccccc1
19,21.9 µM,COc1ccc(-n2c(SCC(=O)c3ccc(F)cc3)nnc2-c2cccnc2)cc1
20,> 50 µM (inactive),Cc1cccc(C(=O)N2CCc3cc(-c4nc(NC(=O)CN5CCc6ccccc6C5)sc4C)ccc32)c1
21,> 50 µM (inactive),Cc1ccc(/C=C/C(=O)Nc2ccc3c(c2)OCCO3)cc1
22,> 50 µM (inactive),COc1ccc(NC(=O)c2nc3n(n2)-c2ccccc2S(=O)(=O)N3)cn1
23,29.6 µM,CCN1C(=O)COc2ccc(NC(=O)c3ccc(OCc4nonc4C)cc3)cc21
24,> 50 µM (inactive),COc1cccc(-c2nc3cnccn3c2NCc2ccc3c(c2)OCO3)c1
25,> 50 µM (inactive),O=C(NC1CCN(Cc2ccccc2)CC1)c1[nH]nc2c1CCc1ccccc1-2

row,IC50,SMILES
1,33 µM,COc1ccc(NC(=O)CC(=O)c2ccc([N+](=O)[O-])cc2)cc1S(=O)(=O)Nc1ccc(Br)cc1
2,11.1 µM,COc1ccc(-c2nc(SCC(=O)Nc3ccc(C(C)=O)cc3)n[nH]2)cc1
3,> 50 µM (inactive),COC(=O)C1C(c2ccc(OC)cc2)C2(C(=O)c3ccccc3C2=O)C2C=Cc3ccccc3N12 (centres undefined)
4,> 50 µM (inactive),CCOc1ccc(NC(=O)COc2cccc3c2CCN(CC)C3=O)cc1
5,> 50 µM (inactive),CCOC(=O)c1cc2c(ccn2C)n1Cc1cccc2ccccc12
6,28.4 µM,COc1ccccc1CC(=O)Nc1nc2ccccc2[nH]1
7,0.152 µM,COc1cccc(C(=O)Oc2ccc3c(=O)c(-c4ccc(OC)c(OC)c4)coc3c2)c1
8,2.65 µM,CC(OC(=O)c1c2c(nc3ccccc13)CCCCC2)C(=O)Nc1ccc2ccccc2c1 (centres undefined)
9,> 50 µM (inactive),CCCc1nc2sc3c(NCc4ccco4)ncnc3c2c2c1CCC2
10,2.07 µM,Cc1sc2ncn3c(=O)n(CC(=O)Nc4ccc(F)c(Cl)c4)nc3c2c1C
11,> 50 µM (inactive),CCCc1nc2sc3c(N(CC)CC)ncnc3c2c2c1CCC2
12,31.4 µM,O=C(CCCC(=O)c1ccccc1)Nc1ccc(F)cc1
13,28.1 µM,C=Cc1ccc(Cn2cc(S(=O)(=O)N3CCOCC3)ccc2=O)cc1
14,33.7 µM,Cc1nc(Nc2ncc(C)s2)cc(C2CN(C(=O)Cc3ccccc3)CCO2)n1 (centres undefined)
15,40.3 µM,CCc1cc2c(=O)[nH]c(Cc3ccc(OC)cc3)nc2s1
16,2.42 µM,O=c1c2ccccc2oc2nc(-c3cccs3)n(-c3ccccc3)c(=O)c12
17,> 50 µM (inactive),O=S(=O)(Cc1nnc(-c2ccccc2C(F)(F)F)o1)c1ccc(Cl)cc1
18,> 50 µM (inactive),Oc1ccc(-c2nc3cnccn3c2NCCc2ccccc2)c(O)c1
19,> 50 µM (inactive),O=C(NCc1ccco1)c1ccc2c(c1)N(Cc1cccc(F)c1)C(=O)c1ccccc1S2
20,> 50 µM (inactive),COc1cc(O)c2c(O)c3c(cc2c1)CC(C)OC3=O (centres undefined)
21,4.07 µM,Cc1c(-c2nc(-c3ccccc3Cl)no2)nnn1-c1cccc(F)c1
22,> 50 µM (inactive),CCN(C(=O)c1cc2c(s1)-c1ccccc1OC2)c1ccccc1F

row,SMILES,IC50
1,COC1=C(C2=C(OC)C(=O)c3cc4c(c(O)c3C2=O)C(=O)OC(C)C4)C(=O)c2c(cc3c(c2O)C(=O)OC(C)C3)C1=O (centres undefined),> 50 µM (inactive)
2,Cn1ccnc1CN1C[C@H]2CCN(c3ncccn3)C[C@H]2C1,> 50 µM (inactive)
